Test results as given in ChEMBL document CHEMBL4177587, “SIRT6 inhibitors with salicylate-like structure show immunosuppressive and chemosensitizing effects” (Bioorg Med Chem, 2017).
Converted amounts (≈) assume the structure as drawn. Each block holds one compound with its values, some of them ahead of it. The source made the active and inactive calls. The calls are words filed in the database; no cut-off is given here.

What was measured:
[1] = target: T1, NAD-dependent protein deacylase sirtuin-6 (Homo sapiens, UniProt Q8N6T7); assay: Inhibition of human recombinant SIRT6 assessed as reduction in NAD+-dependent deacetylase activity at 200 uM using Arg-His-Lys-Lys(epsilon-acetyl)-AMC substrate and NAD+ by fluorescence based assay
T1 sequence (Q8N6T7 whole entry): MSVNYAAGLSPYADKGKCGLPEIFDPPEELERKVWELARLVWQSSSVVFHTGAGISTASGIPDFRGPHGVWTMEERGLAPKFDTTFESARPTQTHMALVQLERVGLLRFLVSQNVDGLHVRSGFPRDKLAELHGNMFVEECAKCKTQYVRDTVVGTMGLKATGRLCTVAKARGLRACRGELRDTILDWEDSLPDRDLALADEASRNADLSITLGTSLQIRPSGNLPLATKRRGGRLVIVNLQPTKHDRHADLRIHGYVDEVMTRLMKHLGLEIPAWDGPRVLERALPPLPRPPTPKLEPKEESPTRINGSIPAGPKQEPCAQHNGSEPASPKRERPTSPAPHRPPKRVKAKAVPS

[2] = target: T1, NAD-dependent protein deacylase sirtuin-6; assay: Inhibition of SIRT6 in human BxPC3 cells assessed as increase in H3K9 acetylation by immunoblotting relative to untreated control; format: cell-based; parameters: concentration or dose not given beside the values
[3] = target: T2, NAD-dependent protein deacetylase sirtuin-2 (Homo sapiens, UniProt Q8IXJ6); assay: Inhibition of human recombinant SIRT2 assessed as reduction in NAD+-dependent deacetylase activity using Arg-His-Lys-Lys(epsilon-acetyl)-AMC substrate and NAD+ by fluorescence based assay
T2 sequence (Q8IXJ6 whole entry): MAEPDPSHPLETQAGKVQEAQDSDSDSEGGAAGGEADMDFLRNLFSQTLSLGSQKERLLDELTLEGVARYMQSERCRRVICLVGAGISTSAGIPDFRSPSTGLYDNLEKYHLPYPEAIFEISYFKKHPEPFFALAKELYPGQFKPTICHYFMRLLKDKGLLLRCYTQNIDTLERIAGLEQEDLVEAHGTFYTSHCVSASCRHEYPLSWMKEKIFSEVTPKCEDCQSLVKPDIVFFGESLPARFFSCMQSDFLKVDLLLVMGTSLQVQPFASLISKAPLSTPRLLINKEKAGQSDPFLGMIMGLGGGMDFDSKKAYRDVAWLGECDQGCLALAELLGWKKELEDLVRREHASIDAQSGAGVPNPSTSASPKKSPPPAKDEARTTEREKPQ

[4] = target: T1, NAD-dependent protein deacylase sirtuin-6; assay: Inhibition of SIRT6 in human BxPC3 cells assessed as increase in 2-NBDG uptake at 100 uM incubated for 18 hrs by glucose uptake assay; format: cell-based
[5] = Intrinsic aqueous solubility in 23% Kleptose HPB; format: physicochemical
Homo sapiens [6] = species: Homo sapiens; assay: Selectivity index, ratio of IC50 for human recombinant SIRT1 to IC50 for human recombinant SIRT6
[7] = Stability in mouse plasma assessed as half life at 1 uM at 37 degC measured after 4 hrs; format: ADME, cell-free
[8] = Intrinsic aqueous solubility in PBS at pH 7.4; format: physicochemical
[9] = target: T3, NAD-dependent protein deacetylase sirtuin-1 (Homo sapiens, UniProt Q96EB6); assay: Inhibition of human recombinant SIRT1 assessed as reduction in NAD+-dependent deacetylase activity using Arg-His-Lys-Lys(epsilon-acetyl)-AMC substrate and NAD+ by fluorescence based assay
T3 sequence (Q96EB6 whole entry): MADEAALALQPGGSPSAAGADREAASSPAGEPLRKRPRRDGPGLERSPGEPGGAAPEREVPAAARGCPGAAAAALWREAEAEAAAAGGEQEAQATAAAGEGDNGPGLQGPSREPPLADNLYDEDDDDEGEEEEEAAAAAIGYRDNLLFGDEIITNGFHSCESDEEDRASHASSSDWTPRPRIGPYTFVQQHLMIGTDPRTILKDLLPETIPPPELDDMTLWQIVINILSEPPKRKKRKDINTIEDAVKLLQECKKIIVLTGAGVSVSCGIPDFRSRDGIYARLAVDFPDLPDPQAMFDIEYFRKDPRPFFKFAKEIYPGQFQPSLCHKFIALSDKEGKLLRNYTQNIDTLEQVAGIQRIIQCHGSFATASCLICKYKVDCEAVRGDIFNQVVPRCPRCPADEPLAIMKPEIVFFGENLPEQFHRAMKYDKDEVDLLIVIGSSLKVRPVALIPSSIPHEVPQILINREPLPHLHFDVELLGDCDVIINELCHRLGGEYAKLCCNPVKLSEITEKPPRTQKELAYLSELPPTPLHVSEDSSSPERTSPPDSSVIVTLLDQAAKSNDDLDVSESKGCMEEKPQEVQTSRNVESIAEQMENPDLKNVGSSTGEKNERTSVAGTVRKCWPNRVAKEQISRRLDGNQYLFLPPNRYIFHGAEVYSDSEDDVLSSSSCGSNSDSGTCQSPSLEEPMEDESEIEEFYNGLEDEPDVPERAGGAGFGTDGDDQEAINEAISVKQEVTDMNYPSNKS

[10] = target: T1, NAD-dependent protein deacylase sirtuin-6; assay: Inhibition of SIRT6 in human BxPC3 cells assessed as reduction in TNFalpha production at 100 uM incubated for 18 hrs by ELISA method; format: cell-based
[11] = Intrinsic aqueous solubility in surfactant in 9% TPGS; format: physicochemical; details: 9% TPGS surfactant solution
[12] = Fraction unbound in mouse plasma at 10 ug/ml by rapid equilibrium dialysis; format: ADME, cell-free
[13] = Intrinsic aqueous solubility in all polymers solutions; format: physicochemical
[14] = Fraction unbound in mouse plasma at 1 ug/ml by rapid equilibrium dialysis; format: ADME, cell-free
[15] = Fraction unbound in human plasma at 1 ug/ml by rapid equilibrium dialysis; format: ADME, cell-free
[16] = target: T1, NAD-dependent protein deacylase sirtuin-6; assay: Inhibition of human recombinant SIRT6 assessed as reduction in NAD+-dependent deacetylase activity using Arg-His-Lys-Lys(epsilon-acetyl)-AMC substrate and NAD+ by fluorescence based assay
[17] = Fraction unbound in human plasma at 10 ug/ml by rapid equilibrium dialysis; format: ADME, cell-free
Homo sapiens [18] = species: Homo sapiens; assay: Selectivity index, ratio of IC50 for human recombinant SIRT2 to IC50 for human recombinant SIRT6
[19] = Ionisation constant, pKa of the compound; format: physicochemical
[20] = Partition coefficient, log P of the compound; format: physicochemical; details: octanol/water
[21] = target: T1, NAD-dependent protein deacylase sirtuin-6; assay: Competitive inhibition of human recombinant SIRT6 assessed as reduction in NAD+-dependent deacetylase activity at 50 uM using varying Arg-His-Lys-Lys(epsilon-acetyl)-AMC substrate and fixed NAD+ by fluorescence based assay based double-reciprocal plot
[22] = Terminal half life in ICR mouse at 5 mg/kg, ip by LC-MS/MS method; format: ADME, organism-based; details: in vivo, read-out: beta t1/2 (converted)
[23] = AUC (0 to infinity) in ICR mouse at 5 mg/kg, ip by LC-MS/MS method; format: ADME, organism-based; parameters: dose 5 mg/kg, route intraperitoneal, time infinity; details: in vivo
[24] = Tmax in ICR mouse at 5 mg/kg, ip by LC-MS/MS method; format: ADME, organism-based; details: in vivo
[25] = Intrinsic aqueous solubility in 1.96% Soluplus solution; format: physicochemical
[26] = Intrinsic aqueous solubility in 23% Captisol; format: physicochemical
[27] = MRT (0 to infinity) in ICR mouse at 5 mg/kg, ip by LC-MS/MS method; format: ADME, organism-based; details: in vivo
Mus musculus = assay: Toxicity in ICR mouse assessed as induction of abnormalities at 5 mg/kg, ip; format: organism-based; details: in vivo
[28] = Cmax in ICR mouse at 5 mg/kg, ip by LC-MS/MS method; format: ADME, organism-based; parameters: dose 5 mg/kg, route intraperitoneal; details: in vivo
[29] = target: T1, NAD-dependent protein deacylase sirtuin-6; assay: Competitive inhibition of human recombinant SIRT6 assessed as reduction in NAD+-dependent deacetylase activity at 50 uM using fixed Arg-His-Lys-Lys(epsilon-acetyl)-AMC substrate and varying NAD+ by fluorescence based assay based double-reciprocal plot
[30] = target: T1, NAD-dependent protein deacylase sirtuin-6; assay: Inhibition of SIRT6 in human BxPC3 cells assessed as potentiation of gemcitabine-induced cytotoxicity at 30 uM incubated for 72 hrs by Cell-titer96 aqueous one assay; format: cell-based
[31] = AUC (0 to t) in ICR mouse at 5 mg/kg, ip by LC-MS/MS method; format: ADME, organism-based; details: in vivo
[32] = Intrinsic aqueous solubility in surfactant in 9% Tween 80; format: physicochemical; details: 9% Tween 80 surfactant solution
BXPC-3 = assay: Toxicity in human BxPC3 cells assessed as reduction in cell viability at 30 uM incubated for 72 hrs by Cell-titer96 aqueous one assay; format: cell-based; details: bxpc-3, 72 h

- inhibition [1]: 5%
SMILES: O=C(O)c1cccc(NC(=O)c2cccc(N3C(=O)CCS3(=O)=O)c2)c1

- inhibition [1]: 70%
SMILES: CCC(=O)Nc1ccc(C(=O)Nc2ccc(C(=O)O)c(O)c2)cc1

- inhibition [1]: 54%
SMILES: O=C(Nc1ccc(O)c(C(=O)O)c1)c1cccc(N2C(=O)CCS2(=O)=O)c1

- inhibition [1]: 17%
SMILES: O=C(Nc1ccc(C(=O)O)c(O)c1)c1ccc(N2C(=O)c3ccccc3C2=O)cc1

- inhibition [1]: 100%
SMILES: O=C(Nc1ccc(C(=O)O)c(O)c1)c1ccc(N2C(=O)CCS2(=O)=O)cc1

More lines, now with the values behind:

SMILES: Cc1c(NC(=O)c2cccc(NC(=O)c3ccco3)c2)cccc1C(=O)O
- inhibition [1]: 18%

SMILES: O=C(Nc1ccc(O)cc1C(=O)O)c1ccc(N2C(=O)c3ccccc3C2=O)cc1
- fold change (FC) [2]: 0.9
- IC50 [3]: 333 µM
- fold change (FC) [4]: 1.1
- solubility [5]: 50 µg/mL (≈ 124 µM)
- Ratio IC50 (Homo sapiens [6]): 21.2
- half-life at 1 µM [7]: 7.7 h
- solubility [8]: 70 µg/mL (≈ 174 µM)
- IC50 [9]: 424 µM
- inhibition [10]: 13%
- inhibition [1]: 100%
- solubility [11]: 50 µg/mL (≈ 124 µM)
- fraction unbound at 10 ug/ml [12]: < 0.01
- solubility [13]: 5 µg/mL (≈ 12.4 µM)
- fraction unbound at 1 ug/ml [14]: < 0.01
- fraction unbound at 1 ug/ml [15]: < 0.001
- IC50 [16]: 20 µM
- fraction unbound at 10 ug/ml [17]: < 0.001
- Ratio IC50 (Homo sapiens [18]): 16.6
- pKa [19]: 3.22
- logP [20]: 3.6

SMILES: O=C(Nc1ccc(O)c(C(=O)O)c1)c1ccc(NC(=O)c2ccco2)cc1
- inhibition [21]: Active
- half-life [22]: 1.53 h
- fold change (FC) [2]: 1.9
- IC50 [3]: 453 µM
- fold change (FC) [4]: 1.4
- AUC(0-inf) [23]: 2840 ng·h/mL
- Tmax [24]: 0.17 h
- solubility [25]: 760 µg/mL (≈ 2070 µM)
- solubility [26]: 650 µg/mL (≈ 1770 µM)
- MRT inf [27]: 0.81 h
- t1/2 ([7]; 4 h, 1 µM): Stable
- Activity (Mus musculus): Non-Toxic
- Cmax [28]: 3890 ng/mL
- solubility [8]: 1400 µg/mL (≈ 3820 µM)
- IC50 [9]: 783 µM
- inhibition [29]: Active
- inhibition [10]: 78%
- inhibition [30]: Active
- inhibition [1]: 100%
- fraction unbound at 10 ug/ml [12]: 0.046
- AUC(0-t) [31]: 2830 ng·h/mL
- solubility [32]: 1700 µg/mL (≈ 4640 µM)
- fraction unbound at 1 ug/ml [14]: 0.029
- fraction unbound at 1 ug/ml [15]: 0.019
- fraction unbound at 10 ug/ml [17]: 0.024
- pKa [19]: 2.58
- Activity (BXPC-3): Non-Toxic
- logP [20]: 2.6

SMILES: O=C(Cc1cccs1)Nc1cccc(C(=O)Nc2cccc(C(=O)O)c2)c1
- inhibition [1]: inactive

SMILES: CCC(CC)C(=O)Nc1cccc(C(=O)Nc2cccc(C(=O)O)c2)c1
- inhibition [1]: 54%

SMILES: O=C(O)c1cc(NC(=O)c2cccc(N3C(=O)CCC3=O)c2)cc(C(=O)O)c1
- inhibition [1]: 68%
